Assay results as given in the NIST ThermoML archive (doi:10.1016/j.jct.2006.04.007).
Values joined by “and” are separate entries in the source; they are usually repeats but may differ in a detail not shown here. Equal entries are not always repeated. ± gives the expanded uncertainty stated by the source.

Test: mn = molality of the nth substance listed, in mol/kg
Settings: 350 kPa, Liquid; for apparent molar heat capacity: Extra sensitive DSC

CC(=O)N[C@@H](C=O)[C@@H](O)[C@H](O)[C@H](O)CO [N-acetyl-D-glucosamine] + O
Settings	apparent molar heat capacity	mass density
278.15 K, m1 = 0.0096	385 ± 110 J/K/mol	–
278.15 K, m1 = 0.01	–	1000.31 ± 0.98 kg/m3
278.15 K, m1 = 0.02	–	1001.78 ± 0.99 kg/m3
278.15 K, m1 = 0.0207	377 ± 51 J/K/mol	–
278.15 K, m1 = 0.03	365 ± 36 J/K/mol and 358 ± 36 J/K/mol	1002.26 ± 0.99 kg/m3 and 1001.98 ± 0.99 kg/m3
278.15 K, m1 = 0.07	362 ± 16 J/K/mol	1005.5 ± 1 kg/m3
278.15 K, m1 = 0.1502	348.5 ± 8.3 J/K/mol	1012.23 ± 1.1 kg/m3
278.15 K, m1 = 0.1999	368.5 ± 6.8 J/K/mol	1014.67 ± 1.1 kg/m3
278.15 K, m1 = 0.3018	373.1 ± 5.3 J/K/mol	1021.8 ± 1.2 kg/m3
278.15 K, m1 = 0.5001	378.3 ± 4.3 J/K/mol	1035.28 ± 1.4 kg/m3
278.15 K, m1 = 0.7003	380.2 ± 3.9 J/K/mol	1047.7 ± 1.6 kg/m3
278.15 K, m1 = 0.958	358.2 ± 3.7 J/K/mol	1065.18 ± 1.8 kg/m3
283.15 K, m1 = 0.0096	416 ± 110 J/K/mol	–
283.15 K, m1 = 0.01	–	1000.13 ± 0.97 kg/m3
283.15 K, m1 = 0.02	–	1001.42 ± 0.98 kg/m3
283.15 K, m1 = 0.0207	403 ± 50 J/K/mol	–
283.15 K, m1 = 0.03	385 ± 35 J/K/mol and 387 ± 36 J/K/mol	1001.76 ± 0.99 kg/m3 and 1002.02 ± 0.99 kg/m3
283.15 K, m1 = 0.07	385 ± 16 J/K/mol	1005.11 ± 1 kg/m3
283.15 K, m1 = 0.1502	374.5 ± 8.2 J/K/mol	1011.82 ± 1.1 kg/m3
283.15 K, m1 = 0.1999	392.8 ± 6.7 J/K/mol	1014.24 ± 1.1 kg/m3
283.15 K, m1 = 0.3018	396.5 ± 5.3 J/K/mol	1021.3 ± 1.2 kg/m3
283.15 K, m1 = 0.5001	401.6 ± 4.3 J/K/mol	1034.59 ± 1.4 kg/m3
283.15 K, m1 = 0.7003	403.8 ± 3.8 J/K/mol	1046.91 ± 1.6 kg/m3
283.15 K, m1 = 0.958	381.8 ± 3.6 J/K/mol	1064.21 ± 1.8 kg/m3
288.15 K, m1 = 0.0096	435 ± 110 J/K/mol	–
288.15 K, m1 = 0.01	–	999.6 ± 0.98 kg/m3
288.15 K, m1 = 0.02	–	1000.86 ± 0.98 kg/m3
288.15 K, m1 = 0.0207	421 ± 50 J/K/mol	–
288.15 K, m1 = 0.03	404 ± 35 J/K/mol and 401 ± 35 J/K/mol	1001.23 ± 0.98 kg/m3 and 1001.43 ± 0.98 kg/m3
288.15 K, m1 = 0.07	405 ± 16 J/K/mol	1004.42 ± 1 kg/m3
288.15 K, m1 = 0.1502	394.4 ± 8.3 J/K/mol	1011.1 ± 1.1 kg/m3
288.15 K, m1 = 0.1999	411.9 ± 7 J/K/mol	1013.51 ± 1.1 kg/m3
288.15 K, m1 = 0.3018	415.2 ± 5.5 J/K/mol	1020.51 ± 1.2 kg/m3
288.15 K, m1 = 0.5001	420.1 ± 4.5 J/K/mol	1033.66 ± 1.4 kg/m3
288.15 K, m1 = 0.7003	422 ± 4.2 J/K/mol	1045.87 ± 1.5 kg/m3
288.15 K, m1 = 0.958	400.5 ± 4 J/K/mol	1063.03 ± 1.8 kg/m3
293.15 K, m1 = 0.0096	450 ± 110 J/K/mol	–
293.15 K, m1 = 0.0207	436 ± 49 J/K/mol	–
293.15 K, m1 = 0.03	420 ± 34 J/K/mol and 415 ± 34 J/K/mol	–
293.15 K, m1 = 0.07	421 ± 16 J/K/mol	–
293.15 K, m1 = 0.1502	411.4 ± 8.2 J/K/mol	–
293.15 K, m1 = 0.1999	428.3 ± 6.8 J/K/mol	–
293.15 K, m1 = 0.3018	431.3 ± 5.4 J/K/mol	–
293.15 K, m1 = 0.5001	436 ± 4.5 J/K/mol	–
293.15 K, m1 = 0.7003	437.9 ± 4 J/K/mol	–
293.15 K, m1 = 0.958	416.6 ± 3.9 J/K/mol	–
298.15 K, m1 = 0.0096	462 ± 100 J/K/mol	–
298.15 K, m1 = 0.0207	449 ± 49 J/K/mol	–
298.15 K, m1 = 0.03	433 ± 34 J/K/mol and 432 ± 34 J/K/mol	–
298.15 K, m1 = 0.07	437 ± 16 J/K/mol	–
298.15 K, m1 = 0.1502	426.5 ± 8.1 J/K/mol	–
298.15 K, m1 = 0.1999	442.5 ± 6.7 J/K/mol	–
298.15 K, m1 = 0.3018	445.2 ± 5.3 J/K/mol	–
298.15 K, m1 = 0.5001	449.8 ± 4.3 J/K/mol	–
298.15 K, m1 = 0.7003	451.5 ± 3.8 J/K/mol	–
298.15 K, m1 = 0.958	430.5 ± 3.8 J/K/mol	–
303.15 K, m1 = 0.0096	474 ± 100 J/K/mol	–
303.15 K, m1 = 0.0207	461 ± 48 J/K/mol	–
303.15 K, m1 = 0.03	445 ± 34 J/K/mol and 447 ± 34 J/K/mol	–
303.15 K, m1 = 0.07	451 ± 15 J/K/mol	–
303.15 K, m1 = 0.1502	440 ± 8 J/K/mol	–
303.15 K, m1 = 0.1999	455 ± 6.6 J/K/mol	–
303.15 K, m1 = 0.3018	457.8 ± 5.2 J/K/mol	–
303.15 K, m1 = 0.5001	462.3 ± 4.2 J/K/mol	–
303.15 K, m1 = 0.7003	463.7 ± 3.8 J/K/mol	–
303.15 K, m1 = 0.958	443.2 ± 3.6 J/K/mol	–
308.15 K, m1 = 0.0096	486 ± 100 J/K/mol	–
308.15 K, m1 = 0.01	–	994.68 ± 1 kg/m3
308.15 K, m1 = 0.02	–	995.7 ± 1 kg/m3
308.15 K, m1 = 0.0207	472 ± 48 J/K/mol	–
308.15 K, m1 = 0.03	456 ± 34 J/K/mol and 459 ± 34 J/K/mol	996.2 ± 1 kg/m3 and 996.26 ± 1 kg/m3
308.15 K, m1 = 0.07	462 ± 15 J/K/mol	999.2 ± 0.98 kg/m3
308.15 K, m1 = 0.1502	452.2 ± 7.8 J/K/mol	1005.72 ± 1 kg/m3
308.15 K, m1 = 0.1999	466.4 ± 6.5 J/K/mol	1008.07 ± 1.1 kg/m3
308.15 K, m1 = 0.3018	469.2 ± 5.1 J/K/mol	1014.85 ± 1.1 kg/m3
308.15 K, m1 = 0.5001	473.5 ± 4.1 J/K/mol	1027.59 ± 1.3 kg/m3
308.15 K, m1 = 0.7003	474.7 ± 3.7 J/K/mol	1039.58 ± 1.5 kg/m3
308.15 K, m1 = 0.958	454.6 ± 3.5 J/K/mol	1056.31 ± 1.7 kg/m3
313.15 K, m1 = 0.0096	496 ± 100 J/K/mol	–
313.15 K, m1 = 0.0207	482 ± 48 J/K/mol	–
313.15 K, m1 = 0.03	465 ± 33 J/K/mol and 470 ± 33 J/K/mol	–
313.15 K, m1 = 0.07	473.4 ± 15 J/K/mol	–
313.15 K, m1 = 0.1502	463.3 ± 7.8 J/K/mol	–
313.15 K, m1 = 0.1999	476.7 ± 6.3 J/K/mol	–
313.15 K, m1 = 0.3018	479.6 ± 5 J/K/mol	–
313.15 K, m1 = 0.5001	483.8 ± 4 J/K/mol	–
313.15 K, m1 = 0.7003	484.8 ± 3.5 J/K/mol	–
313.15 K, m1 = 0.958	465.2 ± 3.5 J/K/mol	–
318.15 K, m1 = 0.0096	506 ± 100 J/K/mol	–
318.15 K, m1 = 0.01	–	990.9 ± 1.1 kg/m3
318.15 K, m1 = 0.02	–	991.84 ± 1.1 kg/m3
318.15 K, m1 = 0.0207	491 ± 47 J/K/mol	–
318.15 K, m1 = 0.03	474 ± 33 J/K/mol and 479 ± 33 J/K/mol	992.39 ± 1.1 kg/m3 and 992.41 ± 1.1 kg/m3
318.15 K, m1 = 0.07	483.8 ± 15 J/K/mol	995.31 ± 1 kg/m3
318.15 K, m1 = 0.1502	473.6 ± 7.7 J/K/mol	1001.76 ± 0.99 kg/m3
318.15 K, m1 = 0.1999	486.3 ± 6.3 J/K/mol	–
318.15 K, m1 = 0.3018	489.2 ± 4.9 J/K/mol	–
318.15 K, m1 = 0.5001	493.4 ± 4 J/K/mol	–
318.15 K, m1 = 0.7003	494.2 ± 3.5 J/K/mol	–
318.15 K, m1 = 0.958	475 ± 3.4 J/K/mol	–
